In patent US20250214942A1, “INHIBITORS OF RECEPTOR INTERACTING PROTEIN KINASE I FOR THE TREATMENT OF DISEASE” (Board of Regents, The University of Texas System, priority 2019, published 2025):
pIC50: −log10 of the molar value. Where two headings read alike, the source gives them in different places.

Columns and labels:
RIPK1 = RIPK1 (Homo sapiens (Human), UniProt Q13546); test: ADP-Glo kinase assay (RIPK1 activity, conversion of ATP to ADP); type: biochemical; conditions: for pIC50: 5 nM RIPK1, 50 μM ATP, 6 h reaction, read-out: RIPK1 Enzyme Avg IC50; for observed potency relative to the other enantiomer: enantiomers separated by SFC, assay not named
Sequence of RIPK1 (Q13546 1-327): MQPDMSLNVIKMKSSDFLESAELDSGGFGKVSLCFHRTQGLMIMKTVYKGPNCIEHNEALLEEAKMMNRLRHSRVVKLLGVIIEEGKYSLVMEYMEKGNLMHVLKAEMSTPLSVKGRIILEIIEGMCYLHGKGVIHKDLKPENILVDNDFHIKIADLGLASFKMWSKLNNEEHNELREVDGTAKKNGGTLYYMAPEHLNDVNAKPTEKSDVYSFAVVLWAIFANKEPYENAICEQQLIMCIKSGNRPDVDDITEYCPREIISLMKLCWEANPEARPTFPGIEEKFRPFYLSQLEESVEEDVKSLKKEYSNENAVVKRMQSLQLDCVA
Summary of the method: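 ADP-Glo luminescence of ATP-to-ADP conversion by 5 nM RIPK1 with 50 μM ATP (final), 6 h reaction after 10 min compound preincubation at rt. Buffer was 50 mM HEPES pH 7.5, 30 mM MgCl2, 0.05% BSA, 0.02% CHAPS. IC50 from four-parameter logistic fit.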

[1] = test system: human monocytic cell line U937; test: Human U937 cellular necroptosis assay (TNFalpha + z-VAD-FMK, Cell Titer-Glo viability); type: cell-based; conditions: U937 cells, 25 ng/mL human TNFalpha + 25 μM z-VAD-FMK, read-out: hU937 Avg IC50
Summary of the method: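 Cells resuspended in phenol red-free RPMI with 10% FBS, stimulated with 25 ng/mL human TNFalpha plus 25 μM z-VAD-FMK, then given serially diluted compound for 22 h at 37° C, 5% CO2. Viability by Cell Titer-Glo 2.0 luminescence; IC50 from four-parameter logistic fit, averaged across runs.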

| pIC50 (RIPK1) | observed potency relative to the other enantiomer (RIPK1) | Compound | pIC50 ([1]; Homo sapiens, U-937, 22 h) | pIC50 ([1]; 22 h) |
| --- | --- | --- | --- | --- |
|  | more potent isomer | Cc1cc(F)c([C@@H]2CC=NN2C(=O)C23CC(COc4cnc(C#N)cn4)(C2)C3)cc1F [Example 197, (S)-5-((3-(5-(2,5-difluoro-4-methylphenyl)-4,5-dihydro-1H-pyrazole-1-carbonyl)bicyclo[1.1.1]pentan-1-yl)methoxy)pyrazine-2-carbonitrile] | 9.11 |  |
| 8.08 |  | N#Cc1cnc(OCC23CC(C(=O)N4N=CCC4c4cc(F)cc(F)c4)(C2)C3)cn1 (centres unmarked) [Example 199, 5-((3-(5-(3,5-difluorophenyl)-4,5-dihydro-1H-pyrazole-1-carbonyl)bicyclo[1.1.1]pentan-1-yl)methoxy)pyrazine-2-carbonitrile] | 8.03 |  |
|  | less potent isomer | N#Cc1cnc(OCC23CC(C(=O)N4N=CC[C@@H]4c4cc(F)cc(F)c4)(C2)C3)cn1 [Example 200, (R)-5-((3-(5-(3,5-difluorophenyl)-4,5-dihydro-1H-pyrazole-1-carbonyl)bicyclo[1.1.1]pentan-1-yl)methoxy)pyrazine-2-carbonitrile] | 5.07 |  |
|  | more potent isomer | N#Cc1cnc(OCC23CC(C(=O)N4N=CC[C@H]4c4cc(F)cc(F)c4)(C2)C3)cn1 [Example 201, (S)-5-((3-(5-(3,5-difluorophenyl)-4,5-dihydro-1H-pyrazole-1-carbonyl)bicyclo[1.1.1]pentan-1-yl)methoxy)pyrazine-2-carbonitrile] | 8.15 |  |
| 7.49 |  | N#Cc1ccc(OCC23CC(C(=O)N4N=CCC4c4cc(F)cc(F)c4)(C2)C3)c(Cl)c1 (centres unmarked) [Example 202, 3-Chloro-4-((3-(5-(3,5-difluorophenyl)-4,5-dihydro-1H-pyrazole-1-carbonyl)bicyclo[1.1.1]pentan-1-yl)methoxy)benzonitrile] | 7.74 |  |
| 5.64 |  | O=C(N1N=CCC1c1cc(F)cc(F)c1)C12CC(CO)(C1)C2 (centres unmarked) [Example 208, (5-(3,5-Difluorophenyl)-4,5-dihydro-1H-pyrazol-1-yl)(3-(hydroxymethyl)bicyclo[1.1.1]pentan-1-yl)methanone] | 5.37 |  |
| 8.03 |  | N#Cc1ccc2c(ccn2CC23CC(C(=O)N4N=CCC4c4cc(F)cc(F)c4)(C2)C3)n1 (centres unmarked) [Example 210, 1-((3-(5-(3,5-difluorophenyl)-4,5-dihydro-1H-pyrazole-1-carbonyl)bicyclo[1.1.1]pentan-1-yl)methyl)-1H-pyrrolo[3,2-b]pyridine-5-carbonitrile] | 8.00 |  |
| 7.96 |  | N#Cc1cnc2c(ccn2CC23CC(C(=O)N4N=CCC4c4cc(F)cc(F)c4)(C2)C3)c1 (centres unmarked) [Example 212, 1-((3-(5-(3,5-difluorophenyl)-4,5-dihydro-1H-pyrazole-1-carbonyl)bicyclo[1.1.1]pentan-1-yl)methyl)-1H-pyrrolo[2,3-b]pyridine-5-carbonitrile] | 7.72 |  |
| 7.48 |  | N#Cc1cc2cnn(CC34CC(C(=O)N5N=CCC5c5cc(F)cc(F)c5)(C3)C4)c2cn1 (centres unmarked) [Example 213, 1-((3-(5-(3,5-difluorophenyl)-4,5-dihydro-1H-pyrazole-1-carbonyl)bicyclo[1.1.1]pentan-1-yl)methyl)-1H-pyrazolo[3,4-c]pyridine-5-carbonitrile] | 7.20 |  |
| 7.60 |  | N#Cc1cnc2cnn(CC34CC(C(=O)N5N=CCC5c5cc(F)cc(F)c5)(C3)C4)c2c1 (centres unmarked) [Example 218, 1-((3-(5-(3,5-difluorophenyl)-4,5-dihydro-1H-pyrazole-1-carbonyl)bicyclo[1.1.1]pentan-1-yl)methyl)-1H-pyrazolo[4,3-b]pyridine-6-carbonitrile] | 6.95 |  |
| 7.33 |  | N#Cc1cc2cn(CC34CC(C(=O)N5N=CCC5c5cc(F)cc(F)c5)(C3)C4)nc2cn1 (centres unmarked) [Example 219, 2-((3-(5-(3,5-difluorophenyl)-4,5-dihydro-1H-pyrazole-1-carbonyl)bicyclo[1.1.1]pentan-1-yl)methyl)-2H-pyrazolo[3,4-c]pyridine-5-carbonitrile] | 6.53 |  |

Further lines, the molecule ahead of its results:

| Compound | pIC50 (RIPK1) | observed potency relative to the other enantiomer (RIPK1) | pIC50 ([1]; Homo sapiens, U-937, 22 h) | pIC50 ([1]; 22 h) |
| --- | --- | --- | --- | --- |
| N#Cc1cncc(C2CC=NN2C(=O)C23CC(Cn4cc(C#N)cn4)(C2)C3)c1 (centres unmarked) [Example 168, 5-(1-(3-((4-cyano-1H-pyrazol-1-yl)methyl)-bicyclo[1.1.1]pentane-1-carbonyl)-4,5-dihydro-1H-pyrazol-5-yl)nicotinonitrile] | 6.06 |  | 5.21 |  |
| Cc1cncc(C2CC=NN2C(=O)C23CC(Cn4cc(C#N)cn4)(C2)C3)n1 (centres unmarked) [Example 169, 1-((3-(5-(6-methylpyrazin-2-yl)-4,5-dihydro-1H-pyrazole-1-carbonyl)bicyclo[1.1.1]-pentan-1-yl)methyl)-1H-pyrazole-4-carbonitrile] | 6.46 |  | 5.48 |  |
| Cc1csc(C2CC=NN2C(=O)C23CC(Cn4cc(C#N)cn4)(C2)C3)n1 (centres unmarked) [Example 170, 1-((3-(5-(4-methylthiazol-2-yl)-4,5-dihydro-1H-pyrazole-1-carbonyl)bicyclo[1.1.1]-pentan-1-yl)methyl)-1H-pyrazole-4-carbonitrile] | 5.33 |  | 5.00 |  |
| Cc1ccc(C2CC=NN2C(=O)C23CC(Cn4cc(C#N)cn4)(C2)C3)nc1 (centres unmarked) [Example 171, 1-((3-(5-(5-methylpyridin-2-yl)-4,5-dihydro-1H-pyrazole-1-carbonyl)bicyclo[1.1.1]-pentan-1-yl)methyl)-1H-pyrazole-4-carbonitiile] | 6.17 |  | 5.43 |  |
| CC1CC(c2cccc(F)c2)N(C(=O)C23CC(Cn4cc(C#N)cn4)(C2)C3)C1 (centres unmarked) [Example 172, 1-((3-(2-(3-fluorophenyl)-4-methylpyrrolidine-1-carbonyl)bicyclo[1.1.1]-pentan-1-yl)methyl)-1H-pyrazole-4-carbonitrile] | 5.36 |  | < 5.00 |  |
| N#Cc1cncc(C2CC=NN2C(=O)C23CC(Cn4ncc5cc(C#N)ccc54)(C2)C3)c1 (centres unmarked) [Example 173, 1-((3-(5-(5-cyanopyridin-3-yl)-4,5-dihydro-1H-pyrazole-1-carbonyl)bicyclo[1.1.1]-pentan-1-yl)methyl)-1H-indazole-5-carbonitrile] | 8.04 |  | 7.28 |  |
| Cc1ccc(C2CC=NN2C(=O)C23CC(Cn4ncc5cc(C#N)ccc54)(C2)C3)nc1 (centres unmarked) [Example 174, 1-((3-(5-(5-methylpyridin-2-yl)-4,5-dihydro-1H-pyrazole-1-carbonyl)bicyclo[1.1.1]-pentan-1-yl)methyl)-1H-indazole-5-carbonitrile] | 7.32 |  | 7.20 |  |
| N#Cc1cccc(C2CC=NN2C(=O)C23CC(Cn4ncc5cc(C#N)ccc54)(C2)C3)c1 (centres unmarked) [Example 175, 1-((3-(5-(3-cyanophenyl)-4,5-dihydro-1H-pyrazole-1-carbonyl)bicyclo[1.1.1]-pentan-1-yl)methyl)-1H-indazole-5-carbonitrile] | 7.80 |  | 7.33 |  |
| N#Cc1ccc2c(cnn2CC23CC(C(=O)N4CC(F)CC4c4cccc(F)c4)(C2)C3)c1 (centres unmarked) [Example 176, 1-((3-(4-fluoro-2-(3-fluoro-phenyl)pyrrolidine-1-carbonyl)bicyclo[1.1.1]-pentan-1-yl)methyl)-1H-indazole-5-carbonitrile] | 7.72 |  | 7.06 |  |
| N#Cc1ccc2c(cnn2CC23CC(C(=O)N4CCC4c4ccccc4)(C2)C3)c1 (centres unmarked) [Example 177, 1-((3-(2-phenylazetidine-1-carbonyl)bicyclo[1.1.1]-pentan-1-yl)methyl)-1H-indazole-5-carbonitrile] | 7.27 |  | 6.27 |  |
| N#Cc1ncn(CC23CC(C(=O)N4N=CCC4c4cc(F)cc(F)c4)(C2)C3)n1 (centres unmarked) [Example 178, 1-((3-(5-(3,5-difluorophenyl)-4.5-dihydro-1H-pyrazole-1-carbonyl)bicyclo[1.1.1]-pentan-1-yl)methyl)-1H-1,2,4-triazole-3-carbonitrile] | 6.99 |  | 6.64 |  |
| N#Cc1cnc2ncn(CC34CC(C(=O)N5N=CCC5c5cc(F)cc(F)c5)(C3)C4)c2c1 (centres unmarked) [Example 184, 1-((3-(5-(3,5-difluorophenyl)-4,5-dihydro-1H-pyrazole-1-carbonyl)bicyclo[1.1.1]-pentan-1-yl)methyl)-1H-imidazo[4,5-b]pyridine-6-carbonitrile or 3-((3-(5-(3,5-difluorophenyl)-4,5-dihydro-1H-pyrazole-1-carbonyl)bicyclo[1.1.1]pentan-1-yl)methyl)-3H-imidazo[4,5-b]pyridine-6-carbonitrile] | 6.87 |  |  | 5.91 |
| O=C(N1N=CCC1c1cc(F)cc(F)c1)C12CC(Cn3cnc4ncccc43)(C1)C2 (centres unmarked) [Example 193, (3-((1H-imidazo[4,5-b]-pyridin-1-yl)methyl)-bicyclo[1.1.1]pentan-1-yl)(5-(3,5-difluorophenyl)-4,5-dihydro-1H-pyrazol-1-yl)methanone and (3-((3H-imidazol[4,5-b]pyridin-3-yl)methyl)-bicyclo[1.1.1]pentan-1-yl)(5-(3,5-difluorophenyl)-4,5-dihydro-1H-pyrazol-1-yl)methanone] | 6.53 |  |  | 5.86 |
| Cc1cc(F)c([C@H]2CC=NN2C(=O)C23CC(COc4cnc(C#N)cn4)(C2)C3)cc1F [Example 196, (R)-5-((3-(5-(2,5-difluoro-4-methylphenyl)-4,5-dihydro-1H-pyrazole-1-carbonyl)bicyclo[1.1.1]pentan-1-yl)methoxy)pyrazine-2-carbonitrile] |  | less potent isomer | 6.20 |  |
